From US20060252749A1, “Lacosamide for add-on therapy of psychosis” (SRZ Properties, Inc., priority 2005, published 2006)
“Also recorded” adds a separate entry of the source.

Key:
[1] = test system: voltage-gated sodium channels; conditions: cited from earlier work
potassium currents = conditions: cited from earlier work
C57BL/6J mice = assay: Prepulse inhibition (PPI) of the acoustic startle reflex in mice; type: in vivo; conditions: for Mean PPI: 30 min prior to testing
From the text: Chow and water were provided ad libitum for the duration of the study.
Responses were sampled every ms. The inter-trial interval was variable with an average of 15 s (range from 10 to 20 s).

[2] = test system: voltage-gated calcium channels; conditions: cited from earlier work
GABA receptor subtypes = conditions: cited from earlier work
schizophrenia = conditions: cited from earlier work; for Effect on psychosis / symptoms of schizophrenia, other anticonvulsants: reports on use in schizophrenia (Citrome 2003, p. 85); for Effect on symptoms of schizophrenia: add-on to antipsychotics (Citrome 2003, p. 86)
[3] = range 60-400; cited from earlier work

COC[C@@H](NC(C)=O)C(=O)NCc1ccccc1 [lacosamide, (R)-2-acetamide-N-benzyl-3-methoxypropionamide]
Inhibition of voltage-gated sodium channels [1]: does not inhibit
Potentiation of potassium currents (potassium currents): does not potentiate
Mean PPI (C57BL/6J mice; lacosamide 3 mg/kg/VEH 2 i.p.): 29 ± 3
Mean PPI (C57BL/6J mice; lacosamide 10 mg/kg/VEH 2 i.p.): 34 ± 3
Mean PPI (C57BL/6J mice; lacosamide 30 mg/kg/VEH 2 i.p.): 27 ± 2
Effect on prepulse inhibition compared to vehicle (C57BL/6J mice; lacosamide administered alone, any dose tested): did not have any significant effect; also recorded: no significant effect
Inhibition of voltage-gated calcium channels [2]: does not inhibit
Direct interaction with known GABA receptor subtypes (GABA receptor subtypes): does not directly interact

NCC1(CC(=O)O)CCCCC1 [gabapentin]
Effect on psychosis / symptoms of schizophrenia, other anticonvulsants (schizophrenia): general worsening of psychosis

Nc1nnc(-c2cccc(Cl)c2Cl)c(N)n1 [lamotrigine]
Effect on symptoms of schizophrenia (schizophrenia): preferentially reduce the positive symptoms
Effect in schizophrenia when added to clozapine (schizophrenia; added to clozapine, double-blind placebo controlled clinical trial, treatment-resistant schizophrenia): beneficial for the treatment of treatment-resistant schizophrenia; also recorded: improvement of positive, not negative symptoms

CN1CCN(C2=Nc3cc(Cl)ccc3Nc3ccccc32)CC1 [clozapine]
Mean PPI (C57BL/6J mice; VEH 1/clozapine 3 mg/kg i.p., PPI expressed as a percentage of the basic startle response): 45 ± 2

CCCC(CCC)C(=O)O [Valproate]
Effect on symptoms of schizophrenia (schizophrenia): preferentially reduce the positive symptoms
Effect on onset of action of the antipsychotic (schizophrenia; add-on to olanzapine or risperidone (Casey et al. 2003)): enhance the onset of action

CCCCCCCCCC(=O)OCCN1CCN(CC/C=C2/c3ccccc3Sc3ccc(Cl)cc32)CC1 [Zuclopenthixol decanoate]
Minimum effective dose [3]: 200 mg/2 weeks

NC(=O)N1c2ccccc2C=Cc2ccccc21 [carbamazepine]
Clinical outcome compared with antipsychotic monotherapy (schizophrenia; add-on to haloperidol): worse clinical outcome
Improvement on the total BPRS (brief psychiatric rating scale) (schizophrenia; another study on the use of carbamazepine): failure to detect significant improvement

CC1(C)O[C@@H]2[C@@H](CO[C@@]3(COS(N)(=O)=O)OC(C)(C)O[C@@H]23)O1 [topiramate]
Effect on psychosis / symptoms of schizophrenia, other anticonvulsants (schizophrenia): deterioration in both positive and negative symptoms
